# From paper PMC7083837 (Nature Communications, 2020)
# Values joined by “and” are separate entries in the source; they are usually repeats but may differ in a detail not shown here. Identical values can stand only once.
# How the values were obtained:
# SERT WT [1] = molecular target: T1, SERT WT (Homo sapiens, UniProt P31645); test: [3H]IMI competitive binding on COS-7 membranes
# T1 construct: expressed in transfected cells; host or cells: COS-7
# Protocol: [^3H]S-CIT and [^3H]IMI competitive binding experiments were performed on membrane preparations of COS-7 cells transiently transfected with SERT WT. Membrane aliquots were mixed with membrane buffer containing 5–10 nM of either [^3H]S-CIT or [^3H]IMI and Lu AF60097 in the indicated concentrations to a final volume of 300 µL. The binding experiments were incubated 1 h at room temperature and subsequently filtered, washed and counted as described under ‘[^3H]IMI and [^3H]S-CIT dissociation rate assay’. Non-specific binding was determined by adding 5 µM paroxetine.
# [2] = test system: extracellular 5-HT levels in rat hippocampus; test: Microdialysis in ventral hippocampus of freely moving rats; type: in vivo; parameters: extracellular 5-HT level / AUC: unit not given here;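 for extracellular 5-HT level: percent of mean basal level in three fractions before perfusion start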
# SERT WT [3] = molecular target: T1, SERT WT; test: [3H]S-CIT competition (equilibrium) binding on COS-7 membranes
# SERT E494Q = molecular target: T2, SERT E494Q (Homo sapiens, UniProt P31645, E494Q); test: [3H]IMI dissociation rate assay; type: binding
# T2 construct: expressed in transfected cells; host or cells: COS-7
# T2 sequence (P31645 whole entry E494Q): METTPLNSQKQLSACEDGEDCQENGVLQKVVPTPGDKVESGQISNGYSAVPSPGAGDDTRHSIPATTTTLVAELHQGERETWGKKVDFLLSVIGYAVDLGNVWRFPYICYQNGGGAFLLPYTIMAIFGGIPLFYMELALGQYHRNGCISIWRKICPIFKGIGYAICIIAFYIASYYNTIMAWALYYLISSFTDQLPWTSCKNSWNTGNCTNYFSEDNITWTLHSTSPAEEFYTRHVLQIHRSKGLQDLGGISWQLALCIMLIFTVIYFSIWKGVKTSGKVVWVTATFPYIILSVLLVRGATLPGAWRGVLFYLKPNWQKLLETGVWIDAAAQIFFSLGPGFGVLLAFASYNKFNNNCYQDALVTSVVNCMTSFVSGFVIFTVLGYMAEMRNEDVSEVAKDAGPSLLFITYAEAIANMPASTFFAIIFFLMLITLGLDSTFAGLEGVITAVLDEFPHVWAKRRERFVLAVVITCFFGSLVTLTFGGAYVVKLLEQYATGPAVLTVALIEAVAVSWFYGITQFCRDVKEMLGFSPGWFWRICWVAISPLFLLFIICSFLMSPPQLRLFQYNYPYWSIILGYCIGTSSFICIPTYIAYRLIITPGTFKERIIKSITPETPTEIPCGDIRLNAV
# T1 sequence (P31645 whole entry): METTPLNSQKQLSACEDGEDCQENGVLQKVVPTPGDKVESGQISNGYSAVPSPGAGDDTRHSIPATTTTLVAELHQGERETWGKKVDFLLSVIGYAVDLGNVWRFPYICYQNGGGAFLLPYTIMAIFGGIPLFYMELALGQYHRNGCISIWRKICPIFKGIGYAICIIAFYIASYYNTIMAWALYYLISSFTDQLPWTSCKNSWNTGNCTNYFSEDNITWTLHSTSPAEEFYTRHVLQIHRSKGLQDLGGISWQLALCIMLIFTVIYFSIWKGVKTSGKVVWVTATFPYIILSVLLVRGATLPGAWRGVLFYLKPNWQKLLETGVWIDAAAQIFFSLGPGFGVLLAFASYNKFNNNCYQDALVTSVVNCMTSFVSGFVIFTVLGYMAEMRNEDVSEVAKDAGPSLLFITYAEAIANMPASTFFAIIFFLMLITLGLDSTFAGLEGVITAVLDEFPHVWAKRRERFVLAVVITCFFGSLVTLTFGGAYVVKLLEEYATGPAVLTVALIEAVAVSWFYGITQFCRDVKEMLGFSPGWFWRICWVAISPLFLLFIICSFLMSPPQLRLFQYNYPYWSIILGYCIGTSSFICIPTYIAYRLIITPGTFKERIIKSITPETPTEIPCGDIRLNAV
smiles,measurement,setting,value
"NC(=O)c1ccc2c(c1)CO[C@@]2(CCCN1CCC(c2ccc3ccc(=O)[nH]c3c2)CC1)c1ccc(F)cc1 [Lu AF60097, (S)-1-(4-fluorophenyl)-1-(3-(4-(2-oxo-1,2-dihydroquinolin-7-yl)piperidin-1-yl)propyl)-1,3-dihydroisobenzofuran-5-carboxamide]",Displacement of [^3H]IMI in binding experiment,"SERT WT [1]; equilibrium binding, SERT WT membranes",not displaced
same,"Displacement of [3H]IMI binding (normalized bound, Fig S6)",SERT WT [1]; log[Lu AF60097] -4.9586,0.8037 and 0.8081 and 0.979
same,"Displacement of [3H]IMI binding (normalized bound, Fig S6)",SERT WT [1]; log[Lu AF60097] -5.2596,0.9221 and 1.029 and 1.04
same,"Displacement of [3H]IMI binding (normalized bound, Fig S6)",SERT WT [1]; log[Lu AF60097] -5.5607,1.05 and 0.9989 and 1.0302
same,"Displacement of [3H]IMI binding (normalized bound, Fig S6)",SERT WT [1]; log[Lu AF60097] -5.8617,1.118 and 1.161 and 1.01
same,"Displacement of [3H]IMI binding (normalized bound, Fig S6)",SERT WT [1]; log[Lu AF60097] -6.1627,1.173 and 1.156 and 0.9563
same,"Displacement of [3H]IMI binding (normalized bound, Fig S6)",SERT WT [1]; log[Lu AF60097] -6.4638,1.154 and 1.04 and 1.011
same,"Displacement of [3H]IMI binding (normalized bound, Fig S6)",SERT WT [1]; log[Lu AF60097] -6.7648,1.061 and 1.088 and 0.8905
same,"Displacement of [3H]IMI binding (normalized bound, Fig S6)",SERT WT [1]; log[Lu AF60097] -7.0658,1.098 and 0.9993 and 0.8339
same,"Displacement of [3H]IMI binding (normalized bound, Fig S6)",SERT WT [1]; log[Lu AF60097] -7.3668,1.049 and 0.9798
same,"Displacement of [3H]IMI binding (normalized bound, Fig S6)",SERT WT [1]; log[Lu AF60097] -7.6679,1.052 and 1.0159
same,"Maximum extracellular 5-HT level, % of basal level",[2]; 1 µl (250 nM) injected in ventral hippocampus,602 ± 156%
same,Hippocampal 5-HT level above saline,"[2]; 1 µl of 250 nM injected locally, after 2 h",about 6 fold
same,extracellular 5-HT level,"[2]; Fig 6A, time 0",99.15 and 92.9 and 84.7 and 127.51 and 96.31 and 90.57
same,extracellular 5-HT level,"[2]; Fig 6A, time -20",99.13 and 103.53 and 109.41 and 104.22 and 103.69 and 101.06
same,extracellular 5-HT level,"[2]; Fig 6A, time -40, single animals",101.72 and 103.57 and 105.89 and 68.26 and 100 and 108.37
same,AUC,"[2]; Fig 6B Inset, single animals",160 and 33 and 22 and 96 and 107 and 114 and 155 and 78 and 140 and 79 and 75 and 81 and 29 and 143 and 77
same,extracellular 5-HT level,"[2]; Fig 6B, Time -40, single animals",98.41 and 131.26 and 120.63 and 87.45 and 121.36 and 138.4 and 108.61 and 82.38 and 85.26 and 67.86 and 55.86 and 116.12
same,IC50,"SERT WT [3]; COS-7 membranes, SERT WT, read-out: Inhibition of [^3H]S-CIT binding (IC50)",270 nM
same,"Displacement of [3H]S-CIT binding (normalized bound, Fig S6)",SERT WT [3]; log[Lu AF60097] -4.9586,0.02221 and 0.02599
same,"Displacement of [3H]S-CIT binding (normalized bound, Fig S6)",SERT WT [3]; log[Lu AF60097] -6.4638,0.4362 and 0.4819 and 0.2888
same,"Displacement of [3H]S-CIT binding (normalized bound, Fig S6)",SERT WT [3]; log[Lu AF60097] -6.7648,0.6201 and 0.6384 and 0.4362
same,"Displacement of [3H]S-CIT binding (normalized bound, Fig S6)",SERT WT [3]; log[Lu AF60097] -7.0658,0.7487 and 0.8379 and 0.6201
same,"Displacement of [3H]S-CIT binding (normalized bound, Fig S6)",SERT WT [3]; log[Lu AF60097] -7.3668,0.8096 and 1.0297 and 0.7487
same,"Displacement of [3H]S-CIT binding (normalized bound, Fig S6)",SERT WT [3]; log[Lu AF60097] -7.6679,0.9347 and 1.009 and 0.8096
same,"Displacement of [3H]S-CIT binding (normalized bound, Fig S6)",SERT WT [3]; log[Lu AF60097] -7.8213,0.9058
same,"Displacement of [3H]S-CIT binding (normalized bound, Fig S6)",SERT WT [3]; log[Lu AF60097] -8.2985,0.9777 and 0.9058
same,"Displacement of [3H]S-CIT binding (normalized bound, Fig S6)",SERT WT [3]; log[Lu AF60097] -9,0.999 and 0.9777
same,"ΔAP (mut/WT), change in allosteric potency relative to SERT WT","SERT E494Q; E494Q, [^3H]IMI dissociation",5
same,IC50,"SERT E494Q; SERT E494Q, read-out: Allosteric potency inhibition of [^3H]IMI dissociation (IC50)",170 nM
